Measured values published in PubChem BioAssay (NCI).
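Briefly, cells in 96-well plates were exposed to five compound concentrations for 48 h, and endpoints were estimated by linear interpolation. The concentration for 50% growth inhibition is given as GI50. TGI denotes the concentration required for complete inhibition of growth.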

Key:
Test in all cases: NCI anticancer screen, dose series, 48 h
[1] = tested on: ACHN renal
[2] = tested on: NCI-H460 lung
[3] = tested on: SN12C renal
[4] = tested on: HS 578T breast
[5] = tested on: HCT-15 colon
[6] = tested on: NCI-H522 lung
[7] = tested on: OVCAR-5 ovarian
[8] = tested on: SF-268 CNS
[9] = tested on: HT29 colon
[10] = tested on: U251 CNS
[11] = tested on: NCI-H23 lung
[12] = tested on: RXF 393 renal
[13] = tested on: CAKI-1 renal
[14] = tested on: K-562 leukemia
[15] = tested on: RPMI-8226 leukemia
[16] = tested on: MALME-3M melanoma
[17] = tested on: OVCAR-8 ovarian
[18] = tested on: HCT-116 colon
[19] = tested on: 786-0 renal
[20] = tested on: OVCAR-4 ovarian
[21] = tested on: SK-OV-3 ovarian
[22] = tested on: MDA-MB-435
[23] = tested on: M14 melanoma
[24] = tested on: SF-295 CNS
[25] = tested on: NCI/ADR-RES ovarian
[26] = tested on: SNB-75 CNS
[27] = tested on: A498 renal
[28] = tested on: HOP-92 NSCLC
[29] = tested on: CCRF-CEM leukemia
[30] = tested on: NCI-H226 lung
[31] = tested on: HOP-62 NSCLC
[32] = tested on: COLO 205 colon
[33] = tested on: PC-3 prostate
[34] = tested on: A549 NSCLC
[35] = tested on: IGROV1 ovarian
[36] = tested on: KM12 colon
[37] = tested on: SR leukemia
[38] = tested on: HL-60(TB) leukemia
[39] = tested on: OVCAR-3 ovarian
[40] = tested on: UACC-62 melanoma
[41] = tested on: MDA-MB-231 breast
[42] = tested on: DU-145 prostate
[43] = tested on: SK-MEL-28 melanoma
[44] = tested on: UO-31 renal
[45] = tested on: BT-549 breast
[46] = tested on: HCC-2998 colon
[47] = tested on: SK-MEL-2 melanoma
[48] = tested on: MOLT-4 leukemia
[49] = tested on: EKVX NSCLC
[50] = tested on: MCF7 breast
[51] = tested on: SNB-19 CNS
[52] = tested on: UACC-257 melanoma
[53] = tested on: SW-620 colon
[54] = tested on: T-47D breast
[55] = tested on: LOX IMVI melanoma
[56] = tested on: SK-MEL-5 melanoma
[57] = tested on: TK-10 renal
[58] = tested on: SF-539 CNS

With N/C(=C\C(=O)n1nc(-c2ccccc2)cc1N)c1ccccc1 the GI50 [1] was 8.29 µM, the TGI [1] was > 100 µM and the GI50 [2] was 3.55 µM. For the same compound, the TGI [2] was 15.8 µM, the GI50 [3] was 7.96 µM and the TGI [3] was 24.3 µM. It also gave a GI50 [4] of 2.41 µM, a TGI [4] of 13 µM and a GI50 [5] of 4.09 µM. It also gave a TGI [5] of 74.6 µM, a GI50 [6] of 5.24 µM and a TGI [6] of 27.9 µM. For the same compound, the GI50 [7] was 19.2 µM, the TGI [7] was 61.6 µM and the GI50 [8] was 5.14 µM. It also gave a TGI [8] of 31.7 µM, a GI50 [9] of 3.46 µM and a TGI [9] of 13 µM. The GI50 [10] was 4.04 µM, the TGI [10] was 19.2 µM and the GI50 [11] was 4.59 µM. It also gave a TGI [11] of 22.8 µM, a GI50 [12] of 13.3 µM and a TGI [12] of 44.8 µM. For the same compound, the GI50 [13] was 5.96 µM, the TGI [13] was 80.4 µM and the GI50 [14] was 2.06 µM. For the same compound, the TGI [14] was 24.4 µM, the GI50 [15] was 2.75 µM and the TGI [15] was 16.2 µM. It also gave a GI50 [16] of 7.51 µM, a TGI [16] of 25.2 µM and a GI50 [17] of 13.8 µM. The TGI [17] was > 100 µM, the GI50 [18] was 3.77 µM and the TGI [18] was 16 µM. For the same compound, the GI50 [19] was 7.72 µM, the TGI [19] was 44.3 µM and the GI50 [20] was 12.5 µM. It also gave a TGI [20] of 47.1 µM, a GI50 [21] of 5.31 µM and a TGI [21] of 39 µM. It also gave a GI50 [22] of 1.19 µM, a TGI [22] of 3.56 µM and a GI50 [23] of 3.13 µM. The TGI [23] was 14.7 µM, the GI50 [24] was 3.48 µM and the TGI [24] was 31.6 µM. The GI50 [25] was 3.2 µM, the TGI [25] was > 100 µM and the GI50 [26] was 3.72 µM. It also gave a TGI [26] of 52.1 µM, a GI50 [27] of 2.77 µM and a TGI [27] of 12.5 µM. For the same compound, the GI50 [28] was 4.59 µM, the TGI [28] was 31.8 µM and the GI50 [29] was 1.34 µM. For the same compound, the TGI [29] was 13.5 µM, the GI50 [30] was 11.2 µM and the TGI [30] was 47.5 µM. The GI50 [31] was 8.3 µM, the TGI [31] was 32.4 µM and the GI50 [32] was 3.6 µM. It also gave a TGI [32] of 14.7 µM, a GI50 [33] of 4.35 µM and a TGI [33] of 28.9 µM. The GI50 [34] was 7.29 µM, the TGI [34] was 81.3 µM and the GI50 [35] was 6.38 µM. The TGI [35] was 61.7 µM, the GI50 [36] was 2.9 µM and the TGI [36] was 14.1 µM. For the same compound, the GI50 [37] was 1.59 µM, the TGI [37] was 7.38 µM and the GI50 [38] was 1.88 µM. For the same compound, the TGI [38] was 5.99 µM, the GI50 [39] was 2.28 µM and the TGI [39] was 6.46 µM. The GI50 [40] was 3.09 µM, the TGI [40] was 19.2 µM and the GI50 [41] was 11.3 µM. It also gave a TGI [41] of 65.2 µM, a GI50 [42] of 5.39 µM and a TGI [42] of 27.7 µM. For the same compound, the GI50 [43] was 5.84 µM, the TGI [43] was 32.3 µM and the GI50 [44] was 3.71 µM. For the same compound, the TGI [44] was 65.3 µM, the GI50 [45] was 2.56 µM and the TGI [45] was 27.4 µM. For the same compound, the GI50 [46] was 11.8 µM, the TGI [46] was 34.2 µM and the GI50 [47] was 4.96 µM. It also gave a TGI [47] of 26.2 µM, a GI50 [48] of 3.72 µM and a TGI [48] of 17.8 µM. It also gave a GI50 [49] of 5.57 µM, a TGI [49] of 35.9 µM and a GI50 [50] of 2.86 µM. It also gave a TGI [50] of 21.1 µM, a GI50 [51] of 14.9 µM and a TGI [51] of 81.2 µM. It also gave a GI50 [52] of 17.4 µM, a TGI [52] of 70.3 µM and a GI50 [53] of 3.59 µM. The TGI [53] was 17.2 µM, the GI50 [54] was 3.27 µM and the TGI [54] was 26.3 µM. The GI50 [55] was 6.54 µM, the TGI [55] was 31.4 µM and the GI50 [56] was 3.01 µM. For the same compound, the TGI [56] was 12.1 µM, the GI50 [57] was 7.72 µM and the TGI [57] was > 100 µM.
In the case of CC(C)c1c(C(=O)Nc2ccccc2)c(-c2ccccc2)c(-c2ccc(F)cc2)n1CC[C@@H]1CC=CC(=O)O1, the GI50 [1] was 1.57 µM, the TGI [1] was 2.92 µM and the GI50 [2] was 2.05 µM. The TGI [2] was 4.21 µM, the GI50 [3] was 1.01 µM and the TGI [3] was 3.82 µM. It also gave a GI50 [4] of 2.14 µM, a TGI [4] of 6.05 µM and a GI50 [5] of 1.88 µM. For the same compound, the TGI [5] was 3.85 µM, the GI50 [6] was 1.5 µM and the TGI [6] was 2.98 µM. The GI50 [7] was 2.05 µM, the TGI [7] was 5.02 µM and the GI50 [8] was 1.81 µM. The TGI [8] was 3.65 µM, the GI50 [9] was 1.62 µM and the TGI [9] was 3.66 µM. The GI50 [10] was 1.7 µM, the TGI [10] was 3.17 µM and the GI50 [11] was 2.03 µM. It also gave a TGI [11] of 4.04 µM, a GI50 [12] of 1.62 µM and a TGI [12] of 3.13 µM. It also gave a GI50 [13] of 1.6 µM, a TGI [13] of 3.45 µM and a GI50 [14] of 0.422 µM. For the same compound, the TGI [14] was 2.62 µM, the GI50 [15] was 0.285 µM and the TGI [15] was 1.17 µM. The GI50 [16] was 1.76 µM, the TGI [16] was 3.41 µM and the GI50 [17] was 2.23 µM. For the same compound, the TGI [17] was 5.23 µM, the GI50 [18] was 0.278 µM and the TGI [18] was 1.23 µM. It also gave a GI50 [19] of 1.68 µM, a TGI [19] of 3.56 µM and a GI50 [21] of 3.39 µM. The TGI [21] was 11.9 µM, the GI50 [22] was 1.7 µM and the TGI [22] was 3.27 µM. For the same compound, the GI50 [23] was 1 µM, the TGI [23] was 2.48 µM and the GI50 [24] was 3.28 µM. For the same compound, the TGI [24] was 13.6 µM, the GI50 [25] was 2.46 µM and the TGI [25] was 6.09 µM. It also gave a GI50 [26] of 1.43 µM, a TGI [26] of 2.78 µM and a GI50 [27] of 4.92 µM. The TGI [27] was 19.1 µM, the GI50 [28] was 0.419 µM and the TGI [28] was 2.28 µM. It also gave a GI50 [29] of 0.39 µM, a TGI [29] of 2.44 µM and a GI50 [30] of 1.71 µM. The TGI [30] was 3.26 µM, the GI50 [31] was 1.85 µM and the TGI [31] was 4.14 µM. The GI50 [32] was 1.68 µM, the TGI [32] was 3.5 µM and the GI50 [33] was 1.31 µM. The TGI [33] was 3.86 µM, the GI50 [34] was 1.99 µM and the TGI [34] was 4.6 µM. It also gave a GI50 [35] of 2.3 µM, a TGI [35] of 5.41 µM and a GI50 [36] of 1.65 µM. For the same compound, the TGI [36] was 3.24 µM, the GI50 [37] was 2.66 µM and the TGI [37] was 9.49 µM. The GI50 [38] was 1.24 µM, the TGI [38] was 6.42 µM and the GI50 [39] was 1.8 µM. For the same compound, the TGI [39] was 3.31 µM, the GI50 [40] was 1.7 µM and the TGI [40] was 3.37 µM. For the same compound, the GI50 [41] was 2.08 µM, the TGI [41] was 4.51 µM and the GI50 [42] was 1.84 µM. For the same compound, the TGI [42] was 3.27 µM, the GI50 [43] was 1.69 µM and the TGI [43] was 3.14 µM. The GI50 [44] was 1.28 µM, the TGI [44] was 2.57 µM and the GI50 [45] was 1.6 µM. It also gave a TGI [45] of 3.46 µM, a GI50 [46] of 1.92 µM and a TGI [46] of 3.5 µM. For the same compound, the GI50 [47] was 1.87 µM, the TGI [47] was 3.43 µM and the GI50 [48] was 2.62 µM. For the same compound, the TGI [48] was 6.98 µM, the GI50 [58] was 1.61 µM and the TGI [58] was 3.14 µM. It also gave a GI50 [49] of 1.86 µM, a TGI [49] of 3.68 µM and a GI50 [50] of 1.78 µM. It also gave a TGI [50] of 4.01 µM, a GI50 [51] of 1.7 µM and a TGI [51] of 3.13 µM. It also gave a GI50 [52] of 1.97 µM, a TGI [52] of 3.92 µM and a GI50 [53] of 1.71 µM. It also gave a TGI [53] of 3.52 µM, a GI50 [54] of 2.58 µM and a TGI [54] of 7.65 µM. It also gave a GI50 [55] of 1.63 µM, a TGI [55] of 3.06 µM and a GI50 [56] of 1.58 µM. It also gave a TGI [56] of 2.94 µM, a GI50 [57] of 2.18 µM and a TGI [57] of 4.67 µM.
